The values below come from paper PMC4167698, “Fatty Acid Esters of Phloridzin Induce Apoptosis of Human Liver Cancer Cells through Altered Gene Expression” (PLoS ONE, 2014).

One test deals with THP-1 cells. Kind of test: MTS cell proliferation assay, THP-1. The class given is cell-based, human. Particulars: Homo sapiens, MTS. The method, then:
(§1) Cell viability was determined by using the MTS assay. In brief, HepG2 cells (5×10^3 cells/100 µL/well), MDA-MB-231 (5×10^3 cells/100 µL/well), THP-1 (25×10^3/100 µL/well), normal human and rat hepatocytes (1×10^4 cells/100 µL/well) were plated in triplicate, in a 96 well sterile flat bottom tissue culture plates. […] Thereby, cells were exposed to various concentrations (0.1, 1, 10, 25, 50, 75, 100 µM) of each treatment. Controls consist of cells with media containing DMSO (<0.5%), test blank wells contained the test compound in media with no cells and blank wells contained media with no cells. After additional 3, 6, 12, 18 or 24 h, 20 µL of the MTS reagent in combination with the electron coupling agent, phenazine methosulfate were added to the wells and cells were incubated in a humidified incubator for 3 h. Absorbance at 490 nm (OD490) was measured by using a Flurostar Optima microplate reader (BMG Labtech, Cary, NC, USA) to obtain the number of viable cells relative to the control population. Percentage of viability of the test compound treated cells are expressed as percentage compared to control (<0.5% DMSO). […] The selective index (SI) of the fatty acid esters of phloridzin is defined as the ratio of cytotoxicity (EC50 values) on normal HP-F cells to solid cancer HepG2, MDA-MB-231 cells (SI = EC50 on HP-F cells/EC50 on solid cancer cells). Samples with SI values greater than three were considered to have high selectivity towards cancer cells.

Test [1] concerns HepG2 cells. Kind of test: MTS cell proliferation assay, HepG2. In kind it is cell-based, human. Particulars: Homo sapiens, MTS. The method in brief: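 MTS read-out (OD490, 3 h with PMS) after 3, 6, 12, 18 or 24 h exposure to 0.1–100 µM compound; HepG2 and MDA-MB-231 at 5×10^3 cells/well, human and rat hepatocytes at 1×10^4 cells/well, triplicate.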
A general note: Tetrazolium assays rely on reduction of a dye to a coloured formazan, in cell work by metabolically active cells.

The test system of another test is MDA-MB-231 cells. Kind of test: MTS cell proliferation assay, MDA-MB-231. The class given is cell-based, human. To be noted: Homo sapiens, MTS. The method, then: as §1
The test system of test [2] is caspase 3 activity of HepG2 cells. Nature of the test: Caspase-3 colorimetric activity assay. In kind it is cell-based, human. To be noted: HepG2, 100 µM, 24 h, compared to DMSO control. The method, then:
The activity of caspase 3 enzyme was measured using caspase 3 colorimetric assay kit purchased from Sigma-Aldrich. […] Cells were lysed and the protein content of cell lysate was quantified by the BCA protein assay (Thermo Fisher Scientific Inc., Ottawa, ON, Canada). Caspase-3 activity was measured in the 200 µg of cell lysate using the caspase-specific peptide substrate, DEVD (Asp-Glu-Val-Asp), conjugated to reporter p-nitroanaline (ρ-NA) molecules.

For test [3], the system named is HepG2 cells. Nature of the test: Annexin V/7-AAD apoptosis/necrosis fluorescence microscopy. Particulars: HepG2, 100 µM, 24 h. The class given is cell-based, human. The method, then: HepG2 cells were seeded into Nunc Lab-Tek two chamber slide (Sigma-Aldrich Canada) at a density of 1×10^6 cells/chamber. […] The slides were washed with diluted phosphate buffered saline. After removing the chamber, each slide was added with 50 µL of Dual Detection Reagent containing apoptosis detection reagent (Annexin V-EnzoGold) and necrosis detection reagent (7-AAD) in 1X binding buffer. The samples were incubated at room temperature for 15 min in the dark. After staining, the cells were washed with binding buffer and covered with a glass coverslip. The stained cells were observed under a fluorescence Zeiss Axiovert 200 m inverted microscope (Carl Zeiss, Toronto, ON, Canada) at magnification of ×40 with a filter set for Annexin V-EnzoGold (Ex/Em: 550/570 nm) and 7-AAD (Ex/Em: 546/647 nm).

Another test deals with T1, human DNA topo IIα (Homo sapiens, UniProt P11388).
T1 construct: purchased TopoGEN, Inc., Columbus, OH, USA
Kind of test: Topoisomerase IIα catalytic activity (pHOT1 DNA relaxation). In kind it is biochemical. Particulars: 100 µM, 4 units enzyme, 37°C 30 min. The method, then:
The topo IIα catalytic activity was monitored via electrophoresis using topoisomerase II drug screening kit (TopoGEN, Inc., Columbus, OH, USA). Briefly, 20 µL of reaction mixtures contained 0.5 M Tris-HCl, pH 8.0, 1.5 M NaCl, 100 mM MgCl2, 20 mM ATP, 300 µg BSA/mL and 5 mM dithiothreitol. Supercoiled DNA (pHOT1 DNA), supercoiled provided in the kit was determined to be ideal for this assay because it is small and easy to handle and has a large number of topo IIα recognition elements. […] The reaction was terminated by adding 2 µL of 10% sodium dodecyl sulfate (SDS) followed by digestion with 2 µL of proteinase K (50 µg/mL) at 37°C for 15 min to degrade enzyme. After adding 2 µL of loading buffer (0.25% bromophenol blue and 50% glycerol) was added to the mixture, samples were loaded onto 1% agarose gel. Electrophoresis was conducted at 66 V (2 V/cm) for 5 h in TBE buffer using Biorad Electrophoretic Gel System (Bio-Rad, Hercules, CA, USA). Supercoiled DNA (pHOT1 DNA) and relaxed DNA were included in the electrophoresis run as markers for DNA topology. Gels were then stained in 0.5 µg/mL gel red in TBE for 30 min and destained for 15 min in distilled water prior to digital image acquisition using Gel Doc 100 system (Bio-Rad, Hercules, CA, USA).
One unit of topoisomerase II activity was defined as the minimum amount of enzyme required to achieve complete relaxation of […] superhelical pHOT1 DNA in 30 min at 37°C. […] The percent of inhibition was calculated by the following formula: [drawing 1] Where Scontrol is the percent of supercoiled DNA in the control lane (without enzyme and test compounds), S0 is the percent of supercoiled DNA in the lane without test compounds and S is the percent of supercoiled DNA in the lane with test compounds and enzyme.

T1 sequence (P11388 whole entry): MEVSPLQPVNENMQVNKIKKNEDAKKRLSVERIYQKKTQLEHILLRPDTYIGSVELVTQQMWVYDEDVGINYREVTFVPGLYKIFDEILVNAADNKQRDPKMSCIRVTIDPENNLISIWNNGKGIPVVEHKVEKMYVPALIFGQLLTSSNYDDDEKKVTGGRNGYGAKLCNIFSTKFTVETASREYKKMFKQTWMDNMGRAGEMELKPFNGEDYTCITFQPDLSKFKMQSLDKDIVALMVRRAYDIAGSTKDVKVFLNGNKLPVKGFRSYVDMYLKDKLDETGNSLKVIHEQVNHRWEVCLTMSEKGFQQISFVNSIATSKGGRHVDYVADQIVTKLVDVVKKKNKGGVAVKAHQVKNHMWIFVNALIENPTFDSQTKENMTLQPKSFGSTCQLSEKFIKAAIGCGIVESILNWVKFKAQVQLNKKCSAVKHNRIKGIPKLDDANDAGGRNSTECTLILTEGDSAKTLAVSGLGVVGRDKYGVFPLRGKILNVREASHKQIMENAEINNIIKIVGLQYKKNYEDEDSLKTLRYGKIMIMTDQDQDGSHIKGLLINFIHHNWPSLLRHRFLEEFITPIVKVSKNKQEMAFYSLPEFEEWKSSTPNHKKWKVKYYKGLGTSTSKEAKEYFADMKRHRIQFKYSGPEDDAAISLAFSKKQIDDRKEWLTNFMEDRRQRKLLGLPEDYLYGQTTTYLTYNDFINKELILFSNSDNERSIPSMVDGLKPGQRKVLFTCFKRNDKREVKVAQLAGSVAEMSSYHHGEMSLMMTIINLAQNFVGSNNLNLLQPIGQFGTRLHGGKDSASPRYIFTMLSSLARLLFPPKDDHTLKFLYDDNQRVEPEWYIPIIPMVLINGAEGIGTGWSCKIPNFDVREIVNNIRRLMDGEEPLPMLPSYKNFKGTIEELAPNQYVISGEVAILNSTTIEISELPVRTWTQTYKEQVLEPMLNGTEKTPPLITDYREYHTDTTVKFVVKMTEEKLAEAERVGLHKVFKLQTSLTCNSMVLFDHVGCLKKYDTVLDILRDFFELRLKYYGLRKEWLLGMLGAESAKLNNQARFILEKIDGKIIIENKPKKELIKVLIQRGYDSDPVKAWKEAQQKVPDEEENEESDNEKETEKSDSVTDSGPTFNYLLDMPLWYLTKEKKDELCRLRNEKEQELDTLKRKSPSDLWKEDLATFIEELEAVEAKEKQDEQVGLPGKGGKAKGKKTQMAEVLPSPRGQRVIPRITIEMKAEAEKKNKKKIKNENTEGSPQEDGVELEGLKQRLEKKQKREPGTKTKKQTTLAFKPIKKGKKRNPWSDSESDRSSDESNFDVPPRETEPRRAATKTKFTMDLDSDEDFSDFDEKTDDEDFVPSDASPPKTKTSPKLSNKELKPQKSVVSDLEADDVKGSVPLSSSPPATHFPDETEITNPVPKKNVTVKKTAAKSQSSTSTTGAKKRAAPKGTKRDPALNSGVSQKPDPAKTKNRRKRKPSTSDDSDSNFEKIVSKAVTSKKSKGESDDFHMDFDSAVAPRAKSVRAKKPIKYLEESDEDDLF

For orientation: EC50 means the midpoint of the concentration-response curve. `O=C(CCc1ccc(O)cc1)c1c(O)cc(O)cc1O` [Phloretin]: the EC50 in the test with THP-1 cells (THP-1, 3 h) was 73.5 ± 5.2 µM; with THP-1 cells (THP-1, 6 h), 64.1 ± 5.4 µM; in the test with THP-1 cells (THP-1, 12 h), 60.1 ± 4.2 µM; in the test with THP-1 cells (THP-1, 18 h) it was 56.9 ± 3 µM; with THP-1 cells (THP-1, 24 h), 39.6 ± 1.7 µM; in the test with HepG2 cells [1] (HepG2, 3 h) it was over 100 µM. Also, the EC50 with HepG2 cells [1] (HepG2, 6 h) was over 100 µM; with HepG2 cells [1] (HepG2, 12 h), over 100 µM; in the test on HepG2 cells [1] (HepG2, 18 h) it was over 100 µM; with HepG2 cells [1] (HepG2, 24 h), 97.2 µM; in the test on MDA-MB-231 cells (MDA-MB-231, 3 h), over 100 µM; with MDA-MB-231 cells (MDA-MB-231, 6 h) it was over 100 µM. For the same compound, the EC50 in the test with MDA-MB-231 cells (MDA-MB-231, 12 h) is over 100 µM; in the test on MDA-MB-231 cells (MDA-MB-231, 18 h) it was over 100 µM; in the test with MDA-MB-231 cells (MDA-MB-231, 24 h), over 100 µM. For the same compound, in test [2], the “caspase 3 activity” value is on record as “enhanced caspase 3 activity but significantly (P<0.001) lower than fatty acid esters of phloridzin or the drug”. Besides, the “apoptosis/necrosis by Annexin V/7-AAD staining” value in the test on HepG2 cells [3] is given as “less apoptotic death of cells”. Further, the “catalytic activity of human DNA topo IIα (pHOT DNA relaxation)” value at human DNA topo IIα is on record as “inhibited catalytic activity”.

With `O=C(CCc1ccc(O)cc1)c1c(O)cc(O)cc1O[C@@H]1O[C@H](CO)[C@@H](O)[C@H](O)[C@H]1O` [Phloridzin, phloretin 2′-O-glucoside], the EC50 in the test on THP-1 cells (THP-1, 3 h) was over 100 µM; in the test with THP-1 cells (THP-1, 6 h), over 100 µM; in the test with THP-1 cells (THP-1, 12 h), over 100 µM; in the test on THP-1 cells (THP-1, 18 h), over 100 µM; in the test with THP-1 cells (THP-1, 24 h), over 100 µM; with HepG2 cells [1] (HepG2, 3 h), over 100 µM. Further, the EC50 in the test on HepG2 cells [1] (HepG2, 6 h) was over 100 µM; in the test on HepG2 cells [1] (HepG2, 12 h), over 100 µM; with HepG2 cells [1] (HepG2, 18 h) it was over 100 µM; in the test with HepG2 cells [1] (HepG2, 24 h), over 100 µM; with MDA-MB-231 cells (MDA-MB-231, 3 h), over 100 µM; in the test on MDA-MB-231 cells (MDA-MB-231, 6 h), over 100 µM. Moreover, the concentration for a half-maximal effect (EC50) with MDA-MB-231 cells (MDA-MB-231, 12 h) is over 100 µM; with MDA-MB-231 cells (MDA-MB-231, 18 h), over 100 µM; with MDA-MB-231 cells (MDA-MB-231, 24 h), over 100 µM. In test [2], the “caspase 3 activity” value is “enhanced caspase 3 activity but significantly (P<0.001) lower than fatty acid esters of phloridzin or the drug”. In addition, in the test on HepG2 cells [3], the “apoptosis/necrosis by Annexin V/7-AAD staining” value is recorded as “less apoptotic death of cells”. Further, the “catalytic activity of human DNA topo IIα (pHOT DNA relaxation)” value at human DNA topo IIα was “inhibited catalytic activity”.
